The text below walks through data of ChEMBL document CHEMBL3259572, “Euodenine A: a small-molecule agonist of human TLR4” (J Med Chem, 2014).

The target in assay [1] is TLR2/TLR6 (Homo sapiens) (UniProt O60603+Q9Y2C9). Kind of assay: Agonist activity at human recombinant TLR2/6 expressed in HEK293 cells at 10 uM by SEAP reporter assay. The assay is classed as cell-based.
For assay [2], the system named is HEK293. The assay can be described thus: Agonist activity at chimeric extracellular domain of human TLR4 fused with mouse intracellular domain expressed in HEK293 cells by NFkappaB reporter assay. The assay is classed as cell-based.
In assay [3] the target is Toll-like receptor 3 (Homo sapiens) (UniProt O15455). Kind of assay: Agonist activity at human recombinant TLR3 expressed in HEK293 cells at 10 uM by SEAP reporter assay. The assay is classed as cell-based.
Assay [4] concerns PBMC. Kind of assay: Suppression of PHA-induced IL-5 release in human PBMC at 10 uM by ELISA. It is filed as functional, cell-based.
Assay [5] concerns the target T1, Toll-like receptor 8 (Homo sapiens) (UniProt Q9NR97).
T1 sequence (whole entry): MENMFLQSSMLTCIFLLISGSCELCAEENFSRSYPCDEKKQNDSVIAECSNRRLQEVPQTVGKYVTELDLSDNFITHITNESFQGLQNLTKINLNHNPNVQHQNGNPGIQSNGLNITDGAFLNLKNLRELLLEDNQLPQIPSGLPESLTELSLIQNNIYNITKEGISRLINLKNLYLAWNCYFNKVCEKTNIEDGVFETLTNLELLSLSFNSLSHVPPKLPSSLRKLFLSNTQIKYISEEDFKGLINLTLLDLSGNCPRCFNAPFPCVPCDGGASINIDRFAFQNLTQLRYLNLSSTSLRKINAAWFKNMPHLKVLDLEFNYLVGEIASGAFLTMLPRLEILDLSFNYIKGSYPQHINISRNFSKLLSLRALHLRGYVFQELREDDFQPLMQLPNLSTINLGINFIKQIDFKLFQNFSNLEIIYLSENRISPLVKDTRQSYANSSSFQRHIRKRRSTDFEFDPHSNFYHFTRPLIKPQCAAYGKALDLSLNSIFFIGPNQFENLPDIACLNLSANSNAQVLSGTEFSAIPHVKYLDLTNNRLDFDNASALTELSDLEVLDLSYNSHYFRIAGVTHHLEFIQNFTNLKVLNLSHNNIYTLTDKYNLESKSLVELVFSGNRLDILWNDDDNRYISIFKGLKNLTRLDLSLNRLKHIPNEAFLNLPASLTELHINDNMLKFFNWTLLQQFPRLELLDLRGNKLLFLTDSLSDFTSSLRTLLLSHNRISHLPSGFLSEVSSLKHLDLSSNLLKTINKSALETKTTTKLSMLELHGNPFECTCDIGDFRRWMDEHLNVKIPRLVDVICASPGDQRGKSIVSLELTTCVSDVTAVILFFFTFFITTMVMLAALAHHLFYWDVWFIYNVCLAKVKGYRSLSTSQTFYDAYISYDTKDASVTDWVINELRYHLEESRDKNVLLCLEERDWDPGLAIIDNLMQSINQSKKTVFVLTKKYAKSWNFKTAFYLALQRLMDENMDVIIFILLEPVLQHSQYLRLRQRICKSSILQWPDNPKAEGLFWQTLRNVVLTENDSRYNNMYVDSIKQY
The assay can be described thus: Agonist activity at human recombinant TLR8 expressed in HEK293 cells at 10 uM by SEAP reporter assay. The assay is classed as cell-based.

Assay [6] deals with Toll-like receptor 2 (Homo sapiens) (UniProt O60603). Kind of assay: Agonist activity at human recombinant TLR2 expressed in HEK293 cells by SEAP reporter assay. It is filed as cell-based.

Active and inactive are the calls of the source. The calls are words filed in the database; no cut-off is given here.

Toll-like receptor 2 (Homo sapiens), sequence (O60603 whole entry): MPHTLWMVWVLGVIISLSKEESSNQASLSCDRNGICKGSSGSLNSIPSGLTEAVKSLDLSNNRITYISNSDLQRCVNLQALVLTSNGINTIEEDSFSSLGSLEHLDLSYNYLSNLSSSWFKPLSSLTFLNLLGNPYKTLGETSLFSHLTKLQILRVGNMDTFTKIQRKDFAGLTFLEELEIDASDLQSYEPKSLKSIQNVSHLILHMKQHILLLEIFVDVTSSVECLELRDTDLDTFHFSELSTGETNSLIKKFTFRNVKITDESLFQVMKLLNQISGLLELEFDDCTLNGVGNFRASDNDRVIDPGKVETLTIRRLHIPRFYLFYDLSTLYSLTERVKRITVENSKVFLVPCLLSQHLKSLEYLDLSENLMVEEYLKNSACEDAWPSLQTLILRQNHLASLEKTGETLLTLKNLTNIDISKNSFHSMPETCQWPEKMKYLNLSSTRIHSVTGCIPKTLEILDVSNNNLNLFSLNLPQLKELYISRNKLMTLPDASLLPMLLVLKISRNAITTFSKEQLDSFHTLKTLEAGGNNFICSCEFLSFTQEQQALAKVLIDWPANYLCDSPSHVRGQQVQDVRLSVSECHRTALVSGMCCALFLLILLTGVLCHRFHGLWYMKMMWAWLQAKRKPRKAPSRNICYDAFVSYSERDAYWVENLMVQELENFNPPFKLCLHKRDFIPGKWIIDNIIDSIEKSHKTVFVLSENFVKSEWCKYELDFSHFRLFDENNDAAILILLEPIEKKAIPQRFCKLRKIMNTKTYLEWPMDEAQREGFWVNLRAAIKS
Toll-like receptor 3 (Homo sapiens), sequence (O15455 whole entry): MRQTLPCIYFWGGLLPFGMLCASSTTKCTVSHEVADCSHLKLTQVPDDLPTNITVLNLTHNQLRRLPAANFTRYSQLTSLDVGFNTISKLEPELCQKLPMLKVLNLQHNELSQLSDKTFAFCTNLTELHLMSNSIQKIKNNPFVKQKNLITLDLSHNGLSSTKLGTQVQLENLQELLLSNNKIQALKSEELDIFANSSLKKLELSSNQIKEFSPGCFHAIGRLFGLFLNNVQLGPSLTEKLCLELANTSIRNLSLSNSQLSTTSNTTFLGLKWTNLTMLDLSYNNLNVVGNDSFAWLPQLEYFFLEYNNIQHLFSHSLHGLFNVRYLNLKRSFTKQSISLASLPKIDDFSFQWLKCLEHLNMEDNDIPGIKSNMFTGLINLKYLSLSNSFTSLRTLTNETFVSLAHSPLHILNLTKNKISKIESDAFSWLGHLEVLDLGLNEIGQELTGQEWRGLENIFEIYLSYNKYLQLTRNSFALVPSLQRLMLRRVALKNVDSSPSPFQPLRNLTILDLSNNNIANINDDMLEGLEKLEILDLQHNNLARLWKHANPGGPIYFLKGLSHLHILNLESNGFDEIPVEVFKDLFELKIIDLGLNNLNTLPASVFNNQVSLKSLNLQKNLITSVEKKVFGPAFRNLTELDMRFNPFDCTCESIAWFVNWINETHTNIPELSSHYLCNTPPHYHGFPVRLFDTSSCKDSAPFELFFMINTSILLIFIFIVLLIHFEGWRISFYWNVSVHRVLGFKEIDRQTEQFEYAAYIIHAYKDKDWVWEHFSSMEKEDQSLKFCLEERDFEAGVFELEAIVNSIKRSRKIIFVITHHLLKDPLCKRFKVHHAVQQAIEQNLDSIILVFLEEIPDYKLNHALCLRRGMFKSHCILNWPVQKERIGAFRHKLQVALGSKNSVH

As to `COc1cc([C@@H]2[C@@H](C)[C@H]3[C@@H]2c2c(c4ccccc4[nH]c2=O)OC3(C)C)cc(OC)c1OC`, the outcome in assay [1], in assay [3], in assay [5] and in assay [6] was inactive. In assay [2], the outcome was Active. In assay [4], the inhibition entry was “Active”.
